Laboratory results reported in the NIST ThermoML archive (doi:10.1016/j.tca.2012.10.024).

Columns and labels:
[1] = refractive index (Na D-line) (dimensionless); xn = mol fraction of the nth substance listed; conditions: 101 kPa, Liquid, Standard Abbe refractometry
[2] = relative permittivity at zero frequency (dimensionless); xn = mol fraction of the nth substance listed; conditions: 101 kPa, Liquid, Parallel plate capacitor

COCCOCCOCCOCCOC [2,5,8,11,14-pentaoxapentadecane] + CCCCCO
Conditions	refractive index, 293.15 K	refractive index, 298.15 K	refractive index, 303.15 K	relative permittivity at zero frequency, 293.15 K	relative permittivity at zero frequency, 298.15 K	relative permittivity at zero frequency, 303.15 K
[1], x2 = 0.0505	1.4319	1.4302	1.4279	–	–	–
[1], x2 = 0.1002	1.4315	1.4294	1.4273	–	–	–
[1], x2 = 0.1509	1.4305	1.4286	1.4265	–	–	–
[1], x2 = 0.1919	1.4301	1.4281	1.4259	–	–	–
[1], x2 = 0.2458	1.4291	1.4272	1.4251	–	–	–
[1], x2 = 0.291	1.4285	1.4265	1.4244	–	–	–
[1], x2 = 0.3384	1.4276	1.4256	1.4236	–	–	–
[1], x2 = 0.3986	1.4265	1.4246	1.4225	–	–	–
[1], x2 = 0.4554	1.4256	1.4235	1.4215	–	–	–
[1], x2 = 0.493	1.4248	1.4229	1.4207	–	–	–
[1], x2 = 0.5496	1.4236	1.4217	1.4196	–	–	–
[1], x2 = 0.5931	1.4227	1.4207	1.4186	–	–	–
[1], x2 = 0.6455	1.4214	1.4194	1.4174	–	–	–
[1], x2 = 0.6979	1.42	1.4181	1.416	–	–	–
[1], x2 = 0.7424	1.4188	1.4168	1.4148	–	–	–
[1], x2 = 0.7959	1.4172	1.4153	1.4133	–	–	–
[1], x2 = 0.8372	1.4159	1.4141	1.4121	–	–	–
[1], x2 = 0.8679	1.4149	1.4131	1.4111	–	–	–
[1], x2 = 0.8987	1.4139	1.4121	1.41	–	–	–
[1], x2 = 0.9225	1.413	1.4112	1.4092	–	–	–
[1], x2 = 0.9488	1.412	1.4102	1.4081	–	–	–
[1], x2 = 0.9793	1.4109	1.409	1.407	–	–	–
[2], x2 = 0.0505	–	–	–	7.99	7.863	7.737
[2], x2 = 0.1002	–	–	–	7.97	7.843	7.715
[2], x2 = 0.1509	–	–	–	8.043	7.911	7.779
[2], x2 = 0.1919	–	–	–	8.041	7.906	7.771
[2], x2 = 0.2458	–	–	–	8.132	7.993	7.854
[2], x2 = 0.291	–	–	–	8.15	8.009	7.866
[2], x2 = 0.3384	–	–	–	8.271	8.119	7.968
[2], x2 = 0.3986	–	–	–	8.344	8.186	8.029
[2], x2 = 0.4554	–	–	–	8.523	8.35	8.18
[2], x2 = 0.493	–	–	–	8.615	8.438	8.26
[2], x2 = 0.5496	–	–	–	8.857	8.662	8.469
[2], x2 = 0.5931	–	–	–	9.027	8.819	8.615
[2], x2 = 0.6455	–	–	–	9.353	9.122	8.896
[2], x2 = 0.6979	–	–	–	9.71	9.454	9.203
[2], x2 = 0.7424	–	–	–	10.138	9.853	9.577
[2], x2 = 0.7959	–	–	–	10.73	10.413	10.103
[2], x2 = 0.8372	–	–	–	11.351	10.992	10.643
[2], x2 = 0.8679	–	–	–	11.894	11.506	11.123
[2], x2 = 0.8987	–	–	–	12.519	12.102	11.691
[2], x2 = 0.9225	–	–	–	13.119	12.665	12.217
[2], x2 = 0.9488	–	–	–	13.878	13.383	12.896
[2], x2 = 0.9793	–	–	–	14.929	14.377	13.834

COCCOCCOCCOCCOC [2,5,8,11,14-pentaoxapentadecane] + CCCCCCCC
Conditions	refractive index, 293.15 K	refractive index, 298.15 K	refractive index, 303.15 K	relative permittivity at zero frequency, 293.15 K	relative permittivity at zero frequency, 298.15 K	relative permittivity at zero frequency, 303.15 K
[1], x1 = 0.0503	1.3993	1.3969	1.3946	–	–	–
[1], x1 = 0.1003	1.4011	1.3987	1.3965	–	–	–
[1], x1 = 0.1515	1.4031	1.4007	1.3985	–	–	–
[1], x1 = 0.2061	1.4052	1.4028	1.4006	–	–	–
[1], x1 = 0.245	1.4067	1.4043	1.4021	–	–	–
[1], x1 = 0.305	1.4091	1.4067	1.4045	–	–	–
[1], x1 = 0.3569	1.4111	1.4087	1.4065	–	–	–
[1], x1 = 0.4054	1.4127	1.4106	1.4084	–	–	–
[1], x1 = 0.4487	1.4144	1.4122	1.41	–	–	–
[1], x1 = 0.5043	1.4163	1.4142	1.4121	–	–	–
[1], x1 = 0.5537	1.4182	1.4159	1.4138	–	–	–
[1], x1 = 0.5963	1.4195	1.4173	1.4151	–	–	–
[1], x1 = 0.6473	1.4213	1.4191	1.417	–	–	–
[1], x1 = 0.693	1.4228	1.4208	1.4186	–	–	–
[1], x1 = 0.7515	1.4248	1.4227	1.4207	–	–	–
[1], x1 = 0.8067	1.4268	1.4248	1.423	–	–	–
[1], x1 = 0.8475	1.4281	1.426	1.4239	–	–	–
[1], x1 = 0.8941	1.4295	1.4275	1.4256	–	–	–
[1], x1 = 0.947	1.431	1.429	1.4271	–	–	–
[2], x1 = 0.033	–	–	–	2.107	2.098	2.088
[2], x1 = 0.0659	–	–	–	2.254	2.242	2.23
[2], x1 = 0.0998	–	–	–	2.413	2.398	2.382
[2], x1 = 0.133	–	–	–	2.577	2.558	2.538
[2], x1 = 0.1645	–	–	–	2.736	2.715	2.693
[2], x1 = 0.2003	–	–	–	2.922	2.896	2.87
[2], x1 = 0.2488	–	–	–	3.19	3.158	3.126
[2], x1 = 0.3002	–	–	–	3.476	3.438	3.4
[2], x1 = 0.3486	–	–	–	3.762	3.718	3.675
[2], x1 = 0.3951	–	–	–	4.03	3.981	3.931
[2], x1 = 0.4461	–	–	–	4.347	4.291	4.234
[2], x1 = 0.5092	–	–	–	4.738	4.674	4.61
[2], x1 = 0.5516	–	–	–	5.005	4.937	4.867
[2], x1 = 0.6003	–	–	–	5.313	5.238	5.163
[2], x1 = 0.6409	–	–	–	5.578	5.499	5.42
[2], x1 = 0.693	–	–	–	5.909	5.823	5.736
[2], x1 = 0.7072	–	–	–	6.004	5.916	5.827
[2], x1 = 0.7515	–	–	–	6.298	6.205	6.111
[2], x1 = 0.8002	–	–	–	6.622	6.523	6.421
[2], x1 = 0.8461	–	–	–	6.943	6.838	6.732
[2], x1 = 0.8985	–	–	–	7.279	7.168	7.057
[2], x1 = 0.9441	–	–	–	7.585	7.469	7.351
